The values below come from ChEMBL document CHEMBL1146299, “Molecular modeling of binding between amidinobenzisothiazoles, with antidegenerative activity on cartilage, and matrix metalloproteinase-3” (Bioorg Med Chem, 2007).

This series can be described thus: Dissociation constant, pKa of the compound. In kind it is physicochemical.
As for `CC(=N)Nc1nsc2ccccc12`, the pKa was 6.99. With `N=C(Nc1nsc2ccccc12)c1ccc(Cl)cc1` the figure was 4.84; with `N=C(Nc1nsc2ccccc12)c1ccccc1`, 5.4.
